Values of other authors as cited in patent US20080045583A1, “STABLE LEVETIRACETAM COMPOSITIONS AND METHODS” (priority 2006, published 2008).

Conditions: oral, with or without food

bioavailability, effect of food: not affected by food
SMILES: CC[C@@H](C(N)=O)N1CCCC1=O [Levetiracetam, (−)-(S)-α-ethyl-2-oxo-1-pyrrolidine acetamide]
